Source: PubChem BioAssay AID2060626 (Molecular Pharmacology Branch, DTP, NCI, 2025)

System: 168753-222-R-J1-PDC complex spheroid viability
Assay: Anticancer human tumor 168753-222-R-J1-PDC patient-derived bladder carcinoma cell line growth inhibition [CLK]
Conditions: for IC50: curve of first compound; for viability, T/C: stronger effect = lower value
Description: A high-throughput screen of multi-cell type tumor spheroids was designed to identify active combinations of […] and targeted small molecules. Complex spheroids include a stromal component modeled by human endothelial cells (HUVEC) and fibroblasts modeled by human mesenchymal stem cells (MSCs). The concentration ranges selected for each drug and investigational agent were based upon clinically achievable concentrations if the clinical Cmax of the agent was known.
Compounds. The drugs and investigational agents: cirtuvivint (SM08502; NSC835563), CC-671 (NSC850746), vemurafenib (NSC761431), tapotoclax (NSC804041), sotorasib (NSC818433), adagrasib (NSC831453), MRTX-1133 (NSC836407), BAY2416964 (NSC825713), copanlisib (NSC816437), inavolisib (NSC800729), abemaciclib (NSC768073), osimertinib (NSC779217), entinostat (NSC756642), eltanexor (KPT-8602, NSC794443), venetoclax (NSC766270), ceralasertib (NSC777638), bortezomib (NSC756655), olaparib (NSC753686), talazoparib (NSC767125), alisertib (NSC759677), peposertib (NSC802822), gemcitabine (NSC613327), 5-fluorouracil (NSC19893), SN-38 (NSC673596), oxaliplatin (NSC266046), paclitaxel (NSC125973), and doxorubicin (NSC123127), were obtained from the National Cancer Institute (NCI) Developmental Therapeutics Program Chemical Repository. The FDA-approved anticancer drug set is available from the Developmental Therapeutics Program at https://dtp.cancer.gov/organization/dscb/obtaining/available plates.htm. […] The stock solutions were prepared in dimethyl sulfoxide (DMSO, Sigma-Aldrich, St. Louis, MO, cat. D2650), except for the platinum complexes which were prepared in saline (Quality Biological, Gaithersburg, MD, cat. 114-055-101), at 800-fold the tested concentration and stored at -70 degrees C prior to their use. All drugs and investigational agents were tested over a range starting from a high concentration at or near the clinical Cmax and decreasing in half-log increments. If the clinical Cmax for an agent had not been determined, the highest concentration tested was 10 microM.
Cell Culture. All cells were maintained in an incubator at 37 degrees C and 5% CO2 with 95% humidity. The PDC lines were cultured according to standard operating procedures established by the NCI PDMR. Briefly, all PDCs were thawed and cultured in Matrigel-coated flasks prepared with a working solution of 1X Ham's F-12 nutrient mix, without supplementation (Invitrogen, Waltham, MA, cat. 11765054), 100 U/mL penicillin-streptomycin (Invitrogen, cat. 15140122), and 2.5% Matrigel (Corning Inc., Corning, NY, cat. 354248) for the first three passages. The 947758-054-R-J2-PDC line was cultured in 6B/Colon 1A media, which includes advanced DMEM/F-12 (Thermo Fisher Scientific, cat. 12634028), 10 mM HEPES (Thermo Fisher Scientific, cat. 15630080), 1X GlutaMAX supplement (Thermo Fisher Scientific, cat. 35050061), 0.1 mg/mL primocin (InvivoGen, cat. ant-pm-2), 10% defined fetal bovine serum, heat inactivated (HyClone Laboratories Inc., cat. SH30070.03HI), 1.25 mM N-Acetyl-L-cysteine (Sigma-Aldrich, cat. A9165), 10 mM nicotinamide (Sigma-Aldrich, cat. N0636), 1X B-27 supplement (Thermo Fisher Scientific, cat. 17504044), 1X N-2 supplement (Thermo Fisher Scientific, cat. 17502048), and 10 microM Y-27632 dihydrochloride (Tocris Bioscience, cat. 1254). The 876862-298-R-J1-PDC was cultured in 6E media, which includes all 6B/Colon 1A media components plus 50% L-WRN conditioned media (ATCC, cat. CRL-3276), 50 ng/mL recombinant human EGF recombinant protein (hEGF; Thermo Fisher Scientific, cat. PHG0311), 10 ng/mL recombinant human fibroblast growth factor 10 (hGFG-10; PeproTech, cat. 100-26), 1 ng/mL recombinant human fibroblast growth factor 2 (hFGF-2; PeproTech, cat. 100-18B), and 1 µM prostaglandin E2 (PGE2; Tocris, cat. 2296). The 227483-062-R1-J1-PDC line was cultured in Panc media, containing all 6E components except hFGF-2, with the addition of 500 nM SB-431542 (Selleckchem, cat. S1067) and 10 nM gastrin (Tocris, cat. 3006). […]

[1] = second compound 0.0316 µM, first compound 0.0316 µM
[2] = second compound 0.0316 µM, first compound 0.1 µM
[3] = second compound 0.0316 µM, first compound 0.316 µM
[4] = second compound 0.0316 µM, first compound 1 µM
[5] = second compound 0.0316 µM, first compound 3.16 µM
[6] = second compound 0.0316 µM, first compound 10 µM
[7] = second compound 0.1 µM, first compound 0.0316 µM
[8] = second compound 0.1 µM, first compound 0.1 µM
[9] = second compound 0.1 µM, first compound 0.316 µM
[10] = second compound 0.1 µM, first compound 1 µM
[11] = second compound 0.1 µM, first compound 3.16 µM
[12] = second compound 0.1 µM, first compound 10 µM
[13] = second compound 0.316 µM, first compound 0.0316 µM
[14] = second compound 0.316 µM, first compound 0.1 µM
[15] = second compound 0.316 µM, first compound 0.316 µM
[16] = second compound 0.316 µM, first compound 1 µM
[17] = second compound 0.316 µM, first compound 3.16 µM
[18] = second compound 0.316 µM, first compound 10 µM
[19] = second compound 1 µM, first compound 0.0316 µM
[20] = second compound 1 µM, first compound 0.1 µM
[21] = second compound 1 µM, first compound 0.316 µM
[22] = second compound 1 µM, first compound 1 µM
[23] = second compound 1 µM, first compound 3.16 µM
[24] = second compound 1 µM, first compound 10 µM
[25] = second compound 3.16 µM, first compound 0.0316 µM
[26] = second compound 3.16 µM, first compound 0.1 µM
[27] = second compound 3.16 µM, first compound 0.316 µM
[28] = second compound 3.16 µM, first compound 1 µM
[29] = second compound 3.16 µM, first compound 3.16 µM
[30] = second compound 3.16 µM, first compound 10 µM
[31] = second compound 10 µM, first compound 0.0316 µM
[32] = second compound 10 µM, first compound 0.1 µM
[33] = second compound 10 µM, first compound 0.316 µM
[34] = second compound 10 µM, first compound 1 µM
[35] = second compound 10 µM, first compound 3.16 µM
[36] = second compound 10 µM, first compound 10 µM
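Note: viability measured after seven days of drug exposure.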
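Throughout, for viability, T/C: luminescence signal used as surrogate for viable cell amount; 100% = DMSO vehicle control wells.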

C#Cc1c(F)ccc2cc(O)cc(-c3ncc4c(N5CC6CCC(C5)N6)nc(OCC56CCCN5CC(F)C6)nc4c3F)c12 (stereo unspecified) + CN1CCN(c2cc(C(=O)Nc3cc4cc(-c5cnn(C)c5)ccc4cn3)ccn2)CC1
IC50 (second compound 0.0316 µM): > 10000 nM
IC50 (second compound 0.1 µM): 1850 nM
IC50 (second compound 0.316 µM): < 31.6 nM
IC50 (second compound 1 µM): < 31.6 nM
IC50 (second compound 3.16 µM): < 31.6 nM
IC50 (second compound 10 µM): < 31.6 nM
viability, T/C [1]: 105%
viability, T/C [2]: 107%
viability, T/C [3]: 101%
viability, T/C [4]: 103%
viability, T/C [5]: 96.4%
viability, T/C [6]: 70.3%
viability, T/C [7]: 77.7%
viability, T/C [8]: 64.7%
viability, T/C [9]: 63.9%
viability, T/C [10]: 64.2%
viability, T/C [11]: 37.4%
viability, T/C [12]: 38%
viability, T/C [13]: 14.7%
viability, T/C [14]: 14.6%
viability, T/C [15]: 11.8%
viability, T/C [16]: 12%
viability, T/C [17]: 12.1%
viability, T/C [18]: 7.39%
viability, T/C [19]: 0.54%
viability, T/C [20]: 0.65%
viability, T/C [21]: 1.92%
viability, T/C [22]: 0.88%
viability, T/C [23]: 0.75%
viability, T/C [24]: 0.34%
viability, T/C [25]: 2.41%
viability, T/C [26]: 0.59%
viability, T/C [27]: 1.48%
viability, T/C [28]: 0.13%
viability, T/C [29]: 0.39%
viability, T/C [30]: 0.22%
viability, T/C [31]: 0.18%
viability, T/C [32]: 0.32%
viability, T/C [33]: 0.39%
viability, T/C [34]: 0.2%
viability, T/C [35]: 0.57%
viability, T/C [36]: 3.73%

C=C(F)C(=O)N1CCN(c2nc(OCC3CCCN3C)nc3c2CCN(c2cccc4cccc(Cl)c24)C3)CC1CC#N (stereo unspecified) + CN1CCN(c2cc(C(=O)Nc3cc4cc(-c5cnn(C)c5)ccc4cn3)ccn2)CC1
IC50 (second compound 0.0316 µM): 3260 nM
IC50 (second compound 0.1 µM): 1230 nM
IC50 (second compound 0.316 µM): < 31.6 nM
IC50 (second compound 1 µM): < 31.6 nM
IC50 (second compound 3.16 µM): < 31.6 nM
IC50 (second compound 10 µM): < 31.6 nM
viability, T/C [1]: 89.1%
viability, T/C [2]: 111%
viability, T/C [3]: 85.8%
viability, T/C [4]: 101%
viability, T/C [5]: 51.4%
viability, T/C [6]: 0.91%
viability, T/C [7]: 58.7%
viability, T/C [8]: 46.7%
viability, T/C [9]: 63.5%
viability, T/C [10]: 56.3%
viability, T/C [11]: 21.8%
viability, T/C [12]: 0.32%
viability, T/C [13]: 15.6%
viability, T/C [14]: 13%
viability, T/C [15]: 11.8%
viability, T/C [16]: 8.4%
viability, T/C [17]: 4.48%
viability, T/C [18]: 1.3%
viability, T/C [19]: 0.47%
viability, T/C [20]: 0.78%
viability, T/C [21]: 0.38%
viability, T/C [22]: 0.16%
viability, T/C [23]: 0.12%
viability, T/C [24]: 1.07%
viability, T/C [25]: 0.26%
viability, T/C [26]: 0.24%
viability, T/C [27]: 0.44%
viability, T/C [28]: 0.14%
viability, T/C [29]: 0.87%
viability, T/C [30]: 0.23%
viability, T/C [31]: 0.27%
viability, T/C [32]: 0.19%
viability, T/C [33]: 0.28%
viability, T/C [34]: 0.24%
viability, T/C [35]: 0.36%
viability, T/C [36]: 2.34%

CC(CO)NC(=O)c1cc(-c2ccc(Cl)cc2)nn(-c2cnn(C)c2)c1=O (stereo unspecified) + CN1CCN(c2cc(C(=O)Nc3cc4cc(-c5cnn(C)c5)ccc4cn3)ccn2)CC1
IC50 (second compound 0.0316 µM): > 10000 nM
IC50 (second compound 0.1 µM): 5220 nM
IC50 (second compound 0.316 µM): < 31.6 nM
IC50 (second compound 1 µM): < 31.6 nM
IC50 (second compound 3.16 µM): < 31.6 nM
IC50 (second compound 10 µM): < 31.6 nM
viability, T/C [1]: 98.7%
viability, T/C [2]: 130%
viability, T/C [3]: 64%
viability, T/C [4]: 112%
viability, T/C [5]: 117%
viability, T/C [6]: 88.2%
viability, T/C [7]: 87.2%
viability, T/C [8]: 81.8%
viability, T/C [9]: 64.1%
viability, T/C [10]: 73.3%
viability, T/C [11]: 58.6%
viability, T/C [12]: 39.6%
viability, T/C [13]: 19.4%
viability, T/C [14]: 13.6%
viability, T/C [15]: 16.8%
viability, T/C [16]: 13.8%
viability, T/C [17]: 19.1%
viability, T/C [18]: 13.8%
viability, T/C [19]: 0.44%
viability, T/C [20]: 0.4%
viability, T/C [21]: 0.31%
viability, T/C [22]: 0.55%
viability, T/C [23]: 0.46%
viability, T/C [24]: 3.13%
viability, T/C [25]: 0.2%
viability, T/C [26]: 0.16%
viability, T/C [27]: 2.4%
viability, T/C [28]: 0.15%
viability, T/C [29]: 2.55%
viability, T/C [30]: 0.21%
viability, T/C [31]: 0.26%
viability, T/C [32]: 0.45%
viability, T/C [33]: 0.61%
viability, T/C [34]: 0.27%
viability, T/C [35]: 1.02%
viability, T/C [36]: 2.24%
